Experimental data reported in article PMC11393688, “Design and synthesis of new 1,2,4-oxadiazole/quinazoline-4-one hybrids with antiproliferative activity as multitargeted inhibitors” (Frontiers in Chemistry, 2024).

Experiments:
[1] = Cell viability, MTT test on normal cell line; format: cell-based; settings: human, MCF-10A mammary gland epithelial cells (normal cell line), MCF-10A normal cells, 4 days incubation
Protocol: The human mammary gland epithelial (MCF-10A) normal cell line was used to test the viability of novel compounds 9a-o ([Mahmoud et al., 2022]; [Mekheimer et al., 2022]). After 4 days of incubation on MCF-10A cells, the cell viability of compounds 9a-o was determined using the MTT test.
The human mammary gland epithelial (MCF-10A) normal cell line was used to test the viability of compounds 9a-o ([Mahmoud et al., 2022]; [Mekheimer et al., 2022]). Refer to Supplementary Appendix A (Supplementary Material) for more details.
4.2. Biological evaluation
4.2.1. Cytotoxic activity using MTT Assay and evaluation of IC50
MTT assay was carried out to study the effect of compounds on mammary epithelial cells (MCF-10A). The medium in which cells were propagated contained Dulbecco's modified Eagle's medium (DMEM)/ Ham's F-12 medium (1:1) supplemented with epidermal growth factor (20 ng/mL), hydrocortisone (500 ng/mL), insulin (10 μg/mL), 2 mM glutamine and 10% foetal calf serum.
After every 2-3 days, the cells were passaged using trypsin ethylenediamine tetra acetic acid (EDTA). The cells were seeded at a density of 10^4 cells mL-1 in flat-bottomed culture plates containing 96 wells each. After 24 h, medium was removed from the plates and the compounds in (in 0.1% DMSO) were added (in 200 μL medium to yield a final concentration of 0.1% v/v) to the wells of plates. A single compound was designated with four wells followed by incubation of plates for 96h at 37°C. After incubation, medium was removed completely from the plates followed by addition of MTT (0.4 mg/mL in medium) to each well and subsequent incubation of plates for 3h. MTT (along with the medium) was removed and DMSO (150μL) was added to each well of the culture plates, followed by vertexing and subsequent measurement of absorbance (at 540 nm) using microplate reader. The data are shown as percentage inhibition of proliferation in comparison with controls containing 0.1% DMSO.

[2] = test system: lung cancer (A-549) cell line; test: Antiproliferative MTT assay, A-549; format: cell-based; settings: Homo sapiens, A549, A-549 lung cancer cells, read-out: Antiproliferative activity IC50 ± SEM A-549
Protocol: (§1) 4.2.1.2. Assay for antiproliferative effect
(§2) To explore the antiproliferative potential of compounds MTT assay was performed according to previously reported procedure using different cell lines to explore the antiproliferative potential of […]
(§3) calculate the total nuclear DNA, a fluorescent dye (propidium iodide, PI) is used which can attach to the DNA, thus offering a quick and precise technique. PI cannot pass through the cell membrane and its signal intensity can be considered as directly proportional to quantity of cellular DNA.
(§4) Cells whose cell membranes are damaged or have changed permeability are counted as dead ones.
(§5) The assay was performed by seeding the cells of different cell lines at a density of 3000-7500 cells/well (in 200µl medium) in culture plates followed by incubation for 24h at 37 °C in humidified 5% CO2/95% air atmospheric conditions. The medium was removed; the compounds were added to the plates at 10 µM concentrations (in 0.1% DMSO) in triplicates, followed by incubation for 48 h. DMSO (0.1%) was used as control. After incubation, medium was removed […]
(§6) 80 °C, the plates were allowed to freeze for 24 h, followed by thawing at 25 °C. […]
(§7) (Polar-Star BMG Tech) was used to record the readings at excitation and emission wavelengths of 530 and 620 nm for each well. The percentage cytotoxicity of compounds was calculated using […]
(§8) Where ATC= Absorbance of treated cells and AC= Absorbance of control. Erlotinib was used as positive control in the assay.

[3] = test system: breast cancer (MCF-7) cell line; test: Antiproliferative MTT assay, MCF-7; format: cell-based; settings: Homo sapiens, MCF7, MCF-7 breast cancer cells, read-out: Antiproliferative activity IC50 ± SEM MCF-7
Protocol: as §1, §2, §3, §4, §5, §6, §7, §8

[4] = test system: pancreatic cancer (Panc-1) cell line; test: Antiproliferative MTT assay, Panc-1; format: cell-based; settings: Homo sapiens, Panc-1 pancreatic cancer cells, read-out: Antiproliferative activity IC50 ± SEM Panc-1
Protocol: as §1, §2, §3, §4, §5, §6, §7, §8

[5] = test system: four human cancer cell lines (HT-29, Panc-1, A-549, MCF-7); test: Average antiproliferative activity (GI50) over four cancer cell lines; format: cell-based; settings: average IC50 against the four cancer cell lines
Protocol: as §1, §2, §3, §4, §5, §6, §7, §8

[6] = target: T1, EGFR (Homo sapiens, UniProt P00533); test: EGFR-TK inhibitory assay; format: biochemical; settings: read-out: EGFR inhibition IC50 ± SEM
T1 construct: amino acids 645–1186; His6 (N); made in house; host or cells: Sf-9 insect cells (baculovirus; pBlueBacHis2B / pFASTBacHTc)
Protocol: 4.2.1.3. EGFR inhibitory assay
Sf-9 cells were infected for 72h for protein expression. […]
centrifugation for 20 min.
Histidine-linked proteins were first eluted with 250 and then […]
using wash buffer. Europium-tagged antiphosphotyrosine antibody (75 µL, 400 ng) was added to each well followed by incubation of 1h and then washing of the plates using buffer. The enhancement solution was added to each well and the signal was recorded at excitation and […]
The autophosphorylation percentage inhibition by compounds was calculated using the following equation: […]
(1 picture or pasted object on this page, not shown here)

[7] = target: T2, BRAF^V600E (Homo sapiens, UniProt P15056, V600E); test: BRAF^V600E kinase inhibitory assay; format: biochemical, Mouse; settings: read-out: BRAF^V600E inhibition IC50 ± SEM
T2 construct: Mouse full-length GST-tagged BRAFV600E; GST; purchased Invitrogen PV3849
Protocol: Refer to Supplementary Appendix A for more details. […]
4.2.1.4. BRAF kinase assay […]
against BRAF. Mouse full-length GST-tagged BRAFV600E (7.5 ng, Invitrogen, PV3849) was pre-incubated with drug (1 µL) and assay dilution buffer (4 µL) for 60 min at 25 °C. In assay dilution buffer, a solution (5 µL) containing MgCl2 (30 mM), ATP (200 µM), recombinant human full length (200 ng) […] N-terminal His-tagged MEK1 (Invitrogen) was added to start the assay, subsequent to incubation for 25 min at 25 °C. The assay was stopped using 5X protein denaturing buffer (LDS) solution (5 µL). To further denature the protein, heat (70° C) was applied for 5 min.
10 µL of each reaction was loaded into the precast plates and electrophoresis was allowed to proceed. After completion of electrophoresis, the front part of the precast gel plate (holding hot ATP) was cut and afterwards cast-off. The dried gel was developed using a phosphor screen. A […]
served as positive control. […]
(FITC) and propidium iodide (PI) staining kit (BD Pharmingen, San Diego, USA). […]
4.3. Statistical analysis
Computerized Prism 5 program was used to statistically analyzed data using one-way ANOVA test followed by Tukey’s as post ANOVA for multiple comparison at P ≤.05. Data were presented

[8] = test system: colon cancer (HT-29) cell line; test: Antiproliferative MTT assay, HT-29; format: cell-based; settings: Homo sapiens, HT-29 colon cancer cells, read-out: Antiproliferative activity IC50 ± SEM HT-29
[9] = target: EGFR^T790M (Homo sapiens, UniProt P00533, T790M); test: EGFR^T790M inhibitory assay (HTRF KinEASE-TK)
[10] = test system: various cancer cell lines; set-up: method as in Hisham et al., 2022; Hisham et al., 2023; settings: ref Hisham et al., 2022, 2023; cited from earlier work
[11] = test system: BRAF^V600E; set-up: method as in Hisham et al., 2022; Hisham et al., 2023; settings: ref Hisham et al., 2022, 2023, read-out: IC50 against BRAF^V600E; cited from earlier work
[12] = test system: wild-type BRAF; set-up: method as in Okaniwa et al., 2012; Zhang et al., 2013; settings: ref Okaniwa et al., 2012; Zhang et al., 2013; cited from earlier work
[13] = target: T1, EGFR; set-up: method as in Okaniwa et al., 2012; Zhang et al., 2013; settings: ref Okaniwa et al., 2012; Zhang et al., 2013; cited from earlier work

T1 sequence (P00533 669-1210): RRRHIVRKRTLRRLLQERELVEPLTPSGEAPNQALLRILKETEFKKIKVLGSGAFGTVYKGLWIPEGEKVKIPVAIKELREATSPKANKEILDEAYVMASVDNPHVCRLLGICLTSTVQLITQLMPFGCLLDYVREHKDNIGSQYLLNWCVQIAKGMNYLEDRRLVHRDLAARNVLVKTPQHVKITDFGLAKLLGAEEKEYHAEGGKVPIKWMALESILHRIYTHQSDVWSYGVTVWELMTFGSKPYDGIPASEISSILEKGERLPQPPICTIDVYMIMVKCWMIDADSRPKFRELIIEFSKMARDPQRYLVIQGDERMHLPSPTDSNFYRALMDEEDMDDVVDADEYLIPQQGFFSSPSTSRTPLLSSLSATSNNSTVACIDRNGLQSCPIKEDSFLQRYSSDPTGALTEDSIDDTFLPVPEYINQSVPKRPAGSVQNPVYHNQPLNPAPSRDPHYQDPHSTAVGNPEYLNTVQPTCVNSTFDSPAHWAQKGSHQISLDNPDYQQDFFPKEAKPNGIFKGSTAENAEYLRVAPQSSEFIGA
Sequence of EGFR^T790M (P00533 25-1210 T790M): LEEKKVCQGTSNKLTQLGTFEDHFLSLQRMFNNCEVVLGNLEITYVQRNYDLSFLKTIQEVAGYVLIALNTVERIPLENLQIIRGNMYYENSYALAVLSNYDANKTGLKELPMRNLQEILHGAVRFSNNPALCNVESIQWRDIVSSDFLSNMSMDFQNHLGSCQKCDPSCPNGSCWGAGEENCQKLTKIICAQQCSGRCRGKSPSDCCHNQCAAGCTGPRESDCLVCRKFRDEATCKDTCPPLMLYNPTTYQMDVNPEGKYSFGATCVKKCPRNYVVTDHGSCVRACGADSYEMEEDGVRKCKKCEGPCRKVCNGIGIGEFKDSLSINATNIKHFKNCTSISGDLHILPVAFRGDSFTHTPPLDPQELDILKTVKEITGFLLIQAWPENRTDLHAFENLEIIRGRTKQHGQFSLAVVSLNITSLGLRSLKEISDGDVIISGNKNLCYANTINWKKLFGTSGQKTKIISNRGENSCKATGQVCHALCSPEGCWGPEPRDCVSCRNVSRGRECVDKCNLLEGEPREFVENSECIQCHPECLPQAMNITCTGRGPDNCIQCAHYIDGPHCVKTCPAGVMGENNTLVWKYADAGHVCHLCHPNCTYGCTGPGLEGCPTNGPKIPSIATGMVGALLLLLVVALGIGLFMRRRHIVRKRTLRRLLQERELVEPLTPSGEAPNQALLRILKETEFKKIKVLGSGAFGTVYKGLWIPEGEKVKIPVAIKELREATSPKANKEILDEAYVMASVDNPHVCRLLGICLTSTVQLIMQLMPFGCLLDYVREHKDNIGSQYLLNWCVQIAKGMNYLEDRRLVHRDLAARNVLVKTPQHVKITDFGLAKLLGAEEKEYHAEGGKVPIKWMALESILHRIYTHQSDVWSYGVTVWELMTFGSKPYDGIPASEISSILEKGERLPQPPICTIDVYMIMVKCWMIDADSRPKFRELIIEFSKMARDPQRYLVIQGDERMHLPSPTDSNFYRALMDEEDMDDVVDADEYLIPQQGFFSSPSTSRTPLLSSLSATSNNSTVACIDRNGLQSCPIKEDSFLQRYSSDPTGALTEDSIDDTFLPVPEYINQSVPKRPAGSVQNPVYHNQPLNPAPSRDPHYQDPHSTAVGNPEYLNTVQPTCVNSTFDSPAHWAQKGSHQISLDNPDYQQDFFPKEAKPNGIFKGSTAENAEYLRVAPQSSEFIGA
T2 sequence (P15056 2-766 V600E limits assumed): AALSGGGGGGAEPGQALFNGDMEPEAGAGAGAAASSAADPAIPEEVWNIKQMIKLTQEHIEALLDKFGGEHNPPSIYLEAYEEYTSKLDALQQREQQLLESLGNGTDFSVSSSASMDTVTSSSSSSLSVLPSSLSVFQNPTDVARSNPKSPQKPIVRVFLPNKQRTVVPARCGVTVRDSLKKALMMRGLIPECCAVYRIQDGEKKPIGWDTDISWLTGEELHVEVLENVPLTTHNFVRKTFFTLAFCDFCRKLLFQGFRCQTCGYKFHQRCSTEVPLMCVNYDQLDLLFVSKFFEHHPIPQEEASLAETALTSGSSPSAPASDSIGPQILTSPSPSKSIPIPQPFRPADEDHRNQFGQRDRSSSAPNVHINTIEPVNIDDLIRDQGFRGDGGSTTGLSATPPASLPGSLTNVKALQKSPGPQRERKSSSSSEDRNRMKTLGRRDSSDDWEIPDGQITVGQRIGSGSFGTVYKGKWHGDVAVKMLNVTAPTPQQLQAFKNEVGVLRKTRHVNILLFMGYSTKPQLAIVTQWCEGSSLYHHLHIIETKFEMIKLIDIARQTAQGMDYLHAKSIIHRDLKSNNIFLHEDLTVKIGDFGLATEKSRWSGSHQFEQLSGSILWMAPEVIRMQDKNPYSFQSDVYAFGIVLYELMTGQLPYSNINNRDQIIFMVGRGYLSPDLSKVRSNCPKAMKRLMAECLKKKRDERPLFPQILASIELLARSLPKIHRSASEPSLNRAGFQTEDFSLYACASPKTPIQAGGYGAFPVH

SMILES | viability at 96 h, 50 µM [1] [%] | IC50 [2] [nM] | IC50 [3] [nM] | IC50 [4] [nM] | GI50 [5] [nM] | IC50 [6] [nM] | IC50 [7] [nM] | melting point [°C] | IC50 [8] [nM] | IC50 [9] [nM] | GI50 [10] [nM] | IC50 [11] [nM] | IC50 against wild-type BRAF [12] | IC50 against EGFR [13]
COc1ccc(-c2noc(CSc3nc4ccccc4c(=O)n3-c3ccccc3)n2)cc1 [Compound 9c, 2-((3-(4-Methoxyphenyl)-1,2,4-oxadiazol-5-yl)methylthio)-3-phenylquinazolin-4(3H)-one] | 91 | 24 ± 2 | 28 ± 3 | 26 ± 2 | 26 | 64 ± 5 | 51 ± 5 | 186 to 188 | 25 ± 2 | 11 ± 2 | – | – | – | –
Cc1cccc(-n2c(SCc3nc(-c4ccc(Cl)cc4)no3)nc3ccccc3c2=O)c1 [Compound 9h, 2-((3-(4-Chlorophenyl)-1,2,4-oxadiazol-5-yl)methylthio)-3-m-tolylquinazolin-4(3H)-one] | 89 | 28 ± 2 | 31 ± 3 | 29 ± 2 | 30 | 72 ± 5 | 57 ± 5 | 178 to 180 | 30 ± 3 | 15 ± 2 | – | – | – | –
COc1cccc2c1C(=O)c1c(O)c3c(c(O)c1C2=O)C[C@@](O)(C(=O)CO)C[C@@H]3O[C@H]1C[C@H](N)[C@H](O)[C@H](C)O1 [Doxorubicin] | – | – | – | – | – | – | – | – | – | – | 1140 | – | – | –
C=CCn1c(SCC(=O)Nc2cccc(C(=O)/C=C/c3ccc(OC)cc3)c2)nc2ccccc2c1=O [IX] | – | – | – | – | – | – | – | – | – | – | 1160 | 650 | – | –
COc1cc2ncnc(Nc3cccc(NC(=O)Nc4ccc(Cl)c(C(F)(F)F)c4)c3)c2cc1OCCCN1CCOCC1 [I] | – | – | – | – | – | – | – | – | – | – | – | – | nanomolar range | nanomolar range
